One test deals with BRD4 (Homo sapiens (Human), UniProt O60885). As to the kind of experiment: TR-FRET in-vitro binding assay for BRD4. The note with it: 45 nM His-Brd4(44-477), acetyl-histone H4 (AcK 5, 8, 12, 16) peptide. In short, it runs like this: (§1)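 Binding is detected by TR-FRET following incubation for 35 minutes at 30° C.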
A general note: In TR-FRET formats the signal depends on donor and acceptor labels being close together.

In a further test the target is BRD2 (Homo sapiens (Human), UniProt P25440). As to the kind of experiment: TR-FRET in-vitro binding assay for BRD2. The conditions noted are these: 45 nM His-Brd2(60-472), acetyl-histone H4 (AcK 5, 8, 12, 16) peptide. The procedure:
TR-FRET In-Vitro Binding Assays for BRD2, BRD3, and BRD4: All assays were performed in 384-well microtiter plates. […] Liquid handling and incubation steps were done on an Innovadyne Nanodrop Express equipped with a robotic arm (Thermo CatX, Perkin Elmer/Caliper Twister II) and an incubator (Liconic STX40, Thermo Cytomat 2C450). The assay plates were prepared by addition of 50 nl per well of compound solution in 90% DMSO HummingBird nanodispenser (Zinsser Analytic). […] Reactions were incubated at 30° C. for 35 minutes. […] After 35 minutes incubation at 30° C., plates were measured in a Perkin Elmer EnVision multilabel reader. […] The stock solutions were stored at […] if not used immediately. For the test procedure the vials were defrosted and identified by a scanner whereby a working sheet was generated that guided the subsequent working steps. Compound dilutions were made in 96 well plates. This format enabled the assay of maximally […] at 8 concentrations (single points) including 4 reference compounds, if desired (known BET inhibitors from the prior art, for this and other assays of the type disclosed herein). The dilution protocol included the production of “pre-dilution plates”, “master plates” and “assay plates”. Polypropylene 96-well plates were used as pre-dilution plates. […] All dilution steps were done on a HamiltonSTAR robot. […] Identical “assay plates” were then prepared by pipetting 50 nL each of compound dilutions of the “master plates” into 384-well “assay plates” by means of a HummingBird 384-channel dispenser. These plates were used directly for the assay which was performed in a total volume of 13.55 μL.

Another test has as its target BRD3 (Homo sapiens (Human), UniProt Q15059). Put plainly: TR-FRET in-vitro binding assay for BRD3. The note with it: 45 nM His-Brd3(20-477), acetyl-histone H4 (AcK 5, 8, 12, 16) peptide. In short, it runs like this: as §1
The next test deals with CREBBP (Homo sapiens (Human), UniProt Q92793). Put plainly: AlphaScreen in-vitro binding assay for CREBBP. The conditions noted are these: 324 nM His-CREBBP (1081-1197), acetyl-histone H4 (AcK 5, 8, 12) peptide. The essentials: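 IC50 values were derived by non-linear regression of percent inhibition across 8 compound concentrations. Protein was His-tagged CREBBP bromodomain (1081-1197), peptide acetyl-histone H4 (AcK 5, 8, 12), in HEPES pH 7.5 buffer. Read-out was AlphaScreen with Ni-chelate acceptor and streptavidin donor beads, 35 min at 30° C then 60 min at RT.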
A general note: In Alpha technology, singlet oxygen from a donor bead excites a nearby acceptor bead.

The next test deals with MV-4-11. As to the kind of experiment: Cell growth inhibition assay (CellTiter-Glo), MV-4-11. Type of test: cell-based, human. The note with it: MV-4-11 cells, 4 days; for GI50: Homo sapiens, MV4-11, 96 h, half-maximal growth inhibition; for MV-4-11 TGI: total growth inhibition. The essentials: (§2)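 Cells were exposed 4 days at 37 °C, 5% CO2 to 3-fold serial dilutions starting at 10 μM (0.1% DMSO vehicle). Viability was measured as ATP by CellTiter-Glo luminescence, corrected for background and a day-0 plate. IC50 and TGI were derived by four-parameter fitting.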
For orientation: ATP-based viability assays read luminescence as a measure of living cells.

Another test concerns THP-1. As to the kind of experiment: Cell growth inhibition assay (CellTiter-Glo), THP-1. The class given is cell-based, human. The conditions noted are these: THP-1 cells, 4 days; for GI50: Homo sapiens, 96 h, half-maximal growth inhibition; for THP-1 TGI: total growth inhibition. In short, it runs like this:
as §2

A further test relates to K-562. Put plainly: Cell growth inhibition assay (CellTiter-Glo), K-562. The class given is cell-based, human. The conditions noted are these: K-562 cells, 4 days; for GI50: Homo sapiens, K562, 96 h, half-maximal growth inhibition; for K-562 TGI: total growth inhibition. In short, it runs like this:
as §2

The results in this text go back to patent publication US9550796B2, “Pyrrolopyrrolone derivatives and their use as BET inhibitors” (NOVARTIS AG, priority 2013, dated 2017).

Chain of BRD2 (P25440 60-472): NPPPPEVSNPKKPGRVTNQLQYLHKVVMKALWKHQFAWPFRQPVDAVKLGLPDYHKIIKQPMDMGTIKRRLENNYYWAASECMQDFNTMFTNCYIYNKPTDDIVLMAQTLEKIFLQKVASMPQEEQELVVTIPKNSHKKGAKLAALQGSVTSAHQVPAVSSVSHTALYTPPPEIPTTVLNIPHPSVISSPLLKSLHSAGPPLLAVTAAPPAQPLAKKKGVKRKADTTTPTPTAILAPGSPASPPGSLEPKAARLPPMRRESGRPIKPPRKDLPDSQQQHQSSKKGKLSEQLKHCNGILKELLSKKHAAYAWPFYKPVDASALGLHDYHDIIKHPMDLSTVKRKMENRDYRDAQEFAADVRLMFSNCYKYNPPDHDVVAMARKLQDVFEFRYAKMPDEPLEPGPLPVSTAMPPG
Chain of CREBBP (Q92793 1081-1197): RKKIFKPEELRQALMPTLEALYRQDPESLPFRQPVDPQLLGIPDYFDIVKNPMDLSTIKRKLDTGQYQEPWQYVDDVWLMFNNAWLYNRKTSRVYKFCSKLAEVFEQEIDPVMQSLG
Chain of BRD3 (Q15059 20-477): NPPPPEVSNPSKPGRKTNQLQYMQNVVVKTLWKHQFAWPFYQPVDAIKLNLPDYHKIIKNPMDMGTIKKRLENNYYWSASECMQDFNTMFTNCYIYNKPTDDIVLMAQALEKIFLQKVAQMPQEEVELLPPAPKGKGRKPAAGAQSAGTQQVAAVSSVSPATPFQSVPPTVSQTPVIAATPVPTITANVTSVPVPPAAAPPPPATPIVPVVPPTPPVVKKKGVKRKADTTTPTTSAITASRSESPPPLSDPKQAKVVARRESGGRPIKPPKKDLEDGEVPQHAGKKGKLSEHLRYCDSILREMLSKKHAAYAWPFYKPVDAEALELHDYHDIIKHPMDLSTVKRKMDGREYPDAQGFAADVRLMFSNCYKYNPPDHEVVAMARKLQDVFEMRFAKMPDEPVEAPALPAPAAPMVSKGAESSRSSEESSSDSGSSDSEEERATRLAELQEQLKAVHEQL

A word on the IC50: it is the concentration that gives 50% inhibition. A low value points to higher potency. A word on the GI50: it is the concentration at which growth is held to half of that of the control. High values mean less potent growth inhibition, low ones more potent growth inhibition. With `Cn1cc(N2C(=O)c3cc(-c4cccc(=O)n4C)n(C4CC4)c3C2c2ccc(Cl)cc2)cc(Cl)c1=O` (centres unmarked) [Example 62, 5-(5-chloro-1-methyl-6-oxo-1,6-dihydropyridin-3-yl)-6-(4-chlorophenyl)-1-cyclopropyl-2-(1-methyl-6-oxo-1,6-dihydropyridin-2-yl)-5,6-dihydropyrrolo[3,4-b]pyrrol-4(1H)-one], the 50% inhibitory concentration (IC50) at BRD4 is 0.17 µM; at BRD2 it was 0.14 µM; on BRD3 it was 0.13 µM; on CREBBP it was 0.27 µM. In addition, the GI50 is 0.226 µM in the test with MV-4-11, 0.758 µM in the test with THP-1 and 1.03 µM with K-562. Moreover, the “MV-4-11 TGI” value with MV-4-11 came to 0.329 µM. Further, the “THP-1 TGI” value with THP-1 came to 1.19 µM. Besides, the “K-562 TGI” value in the test on K-562 is over 10 µM.

For `Cc1cc(N2C(=O)c3cc(-c4ccnc(C(F)(F)F)n4)n(C)c3C2c2ccc(Cl)cc2)cn(C)c1=O` (centres unmarked) [Example 49, 6-(4-chlorophenyl)-5-(1,5-dimethyl-6-oxo-1,6-dihydropyridin-3-yl)-1-methyl-2-(2-(trifluoromethyl)pyrimidin-4-yl)-5,6-dihydropyrrolo[3,4-b]pyrrol-4(1H)-one], the concentration for half-maximal inhibition (IC50) at BRD4 was 0.083 µM; on BRD2 it was 0.076 µM; on BRD3, 0.075 µM. The 50% growth inhibitory concentration (GI50) in the test with MV-4-11 amounted to 0.0923 µM; in the test on THP-1 it was 0.169 µM; in the test with K-562 it was 0.386 µM. The “MV-4-11 TGI” value in the test on MV-4-11 amounted to 0.134 µM. Further, the “THP-1 TGI” value in the test on THP-1 was 0.301 µM. Moreover, in the test on K-562, the “K-562 TGI” value was over 10 µM.

As to `Cc1cc(N2C(=O)c3cc(-c4cnc(N(C)C)nc4)n(C)c3C2c2ccc(Cl)cc2)cn(C)c1=O` (centres unmarked) [Example 57, 6-(4-chlorophenyl)-5-(1,5-dimethyl-6-oxo-1,6-dihydropyridin-3-yl)-2-(2-(dimethylamino)pyrimidin-5-yl)-1-methyl-5,6-dihydropyrrolo[3,4-b]pyrrol-4(1H)-one], the values for the IC50 on BRD4, on BRD2 and on BRD3 were 0.059 µM, 0.05 µM and 0.054 µM, respectively. The GI50 with MV-4-11 was 0.0376 µM; with THP-1, 0.076 µM; in the test on K-562 it was 0.2 µM. Moreover, the “MV-4-11 TGI” value in the test with MV-4-11 amounted to 0.0598 µM. Further, the “THP-1 TGI” value in the test on THP-1 was found to be 0.126 µM. In the test with K-562, the “K-562 TGI” value is over 10 µM.

Turning to `Cc1cc(N2C(=O)c3c(C4CC4)cn(C4CN(C)C4)c3C2c2ccc(Cl)cc2)nc2c1nnn2C` (centres unmarked) [Example 106, 6-(4-chlorophenyl)-3-cyclopropyl-5-(3,7-dimethyl-3H-[1,2,3]triazolo[4,5-b]pyridin-5-yl)-1-(1-methylazetidin-3-yl)-5,6-dihydropyrrolo[3,4-b]pyrrol-4(1H)-one], the IC50 on BRD4 was found to be 0.012 µM; at BRD2, 0.013 µM; at BRD3, 0.012 µM. In addition, the figures for the GI50 in the test with MV-4-11, in the test with THP-1 and with K-562 were 0.000522 µM, 0.00116 µM and 0.00568 µM, respectively. For the same compound, the “MV-4-11 TGI” value with MV-4-11 was 0.00223 µM. In addition, in the test with THP-1, the “THP-1 TGI” value was determined as 0.003335 µM. In addition, the “K-562 TGI” value in the test on K-562 was over 10 µM.

`Cc1cc(N2C(=O)c3cc(-c4cccc(=O)n4C)n(C)c3C2c2ccc(Cl)cc2)cn(C)c1=O` (centres unmarked) [Example 48, 6-(4-chlorophenyl)-5-(1,5-dimethyl-6-oxo-1,6-dihydropyridin-3-yl)-1-methyl-2-(1-methyl-6-oxo-1,6-dihydropyridin-2-yl)-5,6-dihydropyrrolo[3,4-b]pyrrol-4(1H)-one]: the IC50 at BRD4 came out at 0.11 µM; at BRD2, 0.091 µM; on BRD3, 0.076 µM. Further, the values for the GI50 in the test with MV-4-11, in the test with THP-1 and in the test with K-562 were 0.15 µM, 0.711 µM and 1.68 µM, respectively. Further, the “MV-4-11 TGI” value in the test on MV-4-11 was 0.27 µM. Also, in the test with THP-1, the “THP-1 TGI” value was found to be 1.16 µM. Besides, the “K-562 TGI” value in the test with K-562 is over 10 µM.

For `COc1ccc(C2c3c(ccn3C)C(=O)N2c2cc(Cl)c(=O)n(C)c2)cc1` (centres unmarked) [Example 92, 5-(5-chloro-1-methyl-6-oxo-1,6-dihydropyridin-3-yl)-6-(4-methoxyphenyl)-1-methyl-5,6-dihydropyrrolo[3,4-b]pyrrol-4(1H)-one], the IC50 at BRD4 came to 0.89 µM; at BRD2 it was 0.85 µM; on BRD3, 0.69 µM. Moreover, the GI50 in the test with MV-4-11 turned out to be 0.655 µM; with THP-1, 0.68 µM; in the test on K-562 it was 2.87 µM. Moreover, in the test with MV-4-11, the “MV-4-11 TGI” value came out at 1.495 µM. In the test on THP-1, the “THP-1 TGI” value came out at 2.405 µM. Moreover, the “K-562 TGI” value in the test on K-562 is over 10 µM.

For `COc1ccc(-c2cc3c(n2C)C(c2ccc(Cl)cc2)N(c2cc(C)c(=O)n(C)c2)C3=O)cn1` (centres unmarked) [Example 58, 6-(4-chlorophenyl)-5-(1,5-dimethyl-6-oxo-1,6-dihydropyridin-3-yl)-2-(6-methoxypyridin-3-yl)-1-methyl-5,6-dihydropyrrolo[3,4-b]pyrrol-4(1H)-one], the 50% inhibitory concentration (IC50) at BRD4 stood at 0.042 µM; at BRD2 it was 0.04 µM; at BRD3, 0.034 µM. Besides, the GI50 in the test on MV-4-11 was 0.0181 µM; in the test on THP-1, 0.0332 µM; with K-562, 0.133 µM. In addition, the “MV-4-11 TGI” value with MV-4-11 was 0.0338 µM. Further, in the test with THP-1, the “THP-1 TGI” value turned out to be 0.0704 µM. Also, the “K-562 TGI” value in the test with K-562 is over 10 µM.

With `Cc1cc(N2C(=O)c3cc(-c4cccn(C)c4=O)n(C4CC4)c3C2c2ccc(Cl)cc2)cn(C)c1=O` (centres unmarked) [Example 65, 6-(4-chlorophenyl)-1-cyclopropyl-5-(1,5-dimethyl-6-oxo-1,6-dihydropyridin-3-yl)-2-(1-methyl-2-oxo-1,2-dihydropyridin-3-yl)-5,6-dihydropyrrolo[3,4-b]pyrrol-4(1H)-one], the IC50 at BRD4 came out at 0.22 µM; at BRD2, 0.12 µM; on BRD3 it was 0.2 µM. In addition, the GI50 in the test on MV-4-11 is 0.0804 µM; in the test with THP-1, 0.0963 µM; in the test with K-562 it was 0.271 µM. For the same compound, the “MV-4-11 TGI” value with MV-4-11 was 0.1285 µM. The “THP-1 TGI” value with THP-1 turned out to be 0.1675 µM. Also, the “K-562 TGI” value in the test on K-562 is over 10 µM.

As for `CC(=O)Nc1cn(C)c2c1C(=O)N(c1cc(C)c3nnc(C)n3c1)C2c1ccc(Cl)cc1` (centres unmarked) [Example 103, N-(6-(4-chlorophenyl)-5-(3,8-dimethyl-[1,2,4]triazolo[4,3-a]pyridin-6-yl)-1-methyl-4-oxo-1,4,5,6-tetrahydropyrrolo[3,4-b]pyrrol-3-yl)acetamide], on BRD2, the IC50 is 0.031 µM. In addition, the IC50 on CREBBP came out at 5.2 µM. In the test with MV-4-11, the GI50 was determined as 0.0199 µM and the “MV-4-11 TGI” value was found to be 0.0526 µM. Further, in the test with THP-1, the GI50 worked out at 0.045 µM and the “THP-1 TGI” value worked out at 0.119 µM. Besides, in the test with K-562, the GI50 came to 0.241 µM and the “K-562 TGI” value is over 10 µM.

As for `Cn1cc(-c2cc3c(n2C2CC2)C(c2ccc(Cl)cc2)N(c2cc(Cl)c(=O)n(C)c2)C3=O)ccc1=O` (centres unmarked) [Example 66, 5-(5-chloro-1-methyl-6-oxo-1,6-dihydropyridin-3-yl)-6-(4-chlorophenyl)-1-cyclopropyl-2-(1-methyl-6-oxo-1,6-dihydropyridin-3-yl)-5,6-dihydropyrrolo[3,4-b]pyrrol-4(1H)-one], the figures for the IC50 on BRD2 and at CREBBP were 0.052 µM and 0.24 µM, respectively. For the same compound, the GI50 worked out at 0.0439 µM in the test on MV-4-11, 0.0764 µM in the test with THP-1 and 0.25 µM in the test on K-562. For the same compound, in the test with MV-4-11, the “MV-4-11 TGI” value turned out to be 0.08745 µM. For the same compound, the “THP-1 TGI” value in the test with THP-1 was determined as 0.135 µM. For the same compound, the “K-562 TGI” value in the test on K-562 was over 10 µM.
